This note sets out measurements from patent publication US7902253B2, “Isoflavone derivatives of tectorigenin, the preparation thereof and the antiviral medicine containing the same as an effective constituent” (priority 2003, dated 2011).

In brackets after ≈: the same amount, converted by molar mass. Several values for one entry are separate records, joined by “and”; a condition that tells them apart may be missing. Equal values may be shown once. Read-outs that look alike come from different tables or passages of the source.

Data set [1] in a line: solubility test in water (Chinese Pharmacopeia method). The following applies: 25° C.±2° C., shaken every five minutes for 30 minutes.
Data set [2] can be described thus: solubility in water stated in description and preparation examples. It counts as physicochemical.
A further data set concerns adenovirus type 3 (ADV3). It counts as cell-based.
The subject of a further data set is adenovirus type 7 (ADV7). It counts as cell-based.
In data set [3] the test system is Coxsackie virus group B (CoxBV). It counts as cell-based.
Data set [4] relates to influenza virus type A1 (Flu•V A1). It counts as cell-based.
Data set [5] has as its system influenza virus type A3 (Flu•V A3). It counts as cell-based.
The test system of data set [6] is respiratory syncytial virus (RSV). It counts as cell-based.
A further data set concerns HSV-1. It counts as cell-based.
Another data set relates to VZV. It counts as cell-based.
Another data set relates to coronavirus BJ01 strain. As to the kind of experiment: organism not typed. It counts as cell-based, coronavirus (SARS). The conditions noted are these: for IC50: Vero C1008, 120 h.
A further data set relates to Vero-E6 cell. Put plainly: toxicity to Vero-E6 cell (CPE, REED-MUENCH). The following applies: five days, CPE index.
The next data set concerns Hep-2 cells. As to the kind of experiment: cell toxicity test. The conditions noted are these: Hep-2, all concentrations tested.
A further data set deals with Z-HL16C cells. As to the kind of experiment: cell toxicity test. The following applies: all concentrations tested.
Data set [7] in a line: clarity of injection after adding glucose. It counts as physicochemical.
Setting [8] is: product of the preparation example (salt as made), read-out: solubility in water.

Take `COc1c(O)cc2occ(-c3ccc(O)cc3)c(=O)c2c1O` [Compound (I), 5,7,4′-trihydroxy-6-methoxyl isoflavone, reference compound]: in [1], the “Solute: water” value came to 0.1 mg/mL.
By solubility is commonly meant the concentration that dissolves in the medium under given conditions. A word on the IC50: it is the point on the concentration scale where inhibition reaches its midpoint. A higher IC50 goes with weaker potency. For the molecule `COc1c(O)cc2occ(-c3ccc(OCCN(C)C)cc3)c(=O)c2c1O` [Compound (VIII)], the solubility in data set [2] (setting [8]) was above 2000 µg/mL. The “cell pathologic change degree” value is 1+ and 2+ and 3+ in the data set with adenovirus type 3 (ADV3); 2+ and 3+ in the data set on adenovirus type 7 (ADV7); 1+ and 2+ and 3+ in data set [3]; 2+ in [4]; 1+ and 2+ and 3+ in data set [5]; 2+ and 3+ in [6]. The “cell pathologic change degree” value in the data set with HSV-1 is 1+ and 2+; in the data set on VZV it was 2+. Besides, in the data set with coronavirus BJ01 strain, the IC50 was found to be 112 µg/mL (≈ 302 µM). In addition, the “TD50 (median toxic concentration)” value in the data set with Vero-E6 cell is 3.45 mg/mL. Besides, in data set [1], the “Solute: water” value came out at 10 mg/mL.
For `C=C1CC[C@@H]2[C@](C)(COC(=O)CCC(=O)[O-])[C@H](OC(=O)CCC(=O)[O-])CC[C@@]2(C)[C@@H]1/C=C/C1=CCOC1=O.[K+].[Na+]` [Chuanhuning, Potassium Sodium Dehydroandroandrographolide Succinate, reference compound], the “cell pathologic change degree” value was 2+ and 3+ in the data set with adenovirus type 3 (ADV3); 2+ and 3+ with adenovirus type 7 (ADV7); 2+ and 3+ in data set [3]; 2+ and 3+ in data set [4]; 2+ and 3+ in data set [5]; 2+ and 3+ in data set [6]. The “cell pathologic change degree” value with HSV-1 was 1+ and 2+ and 3+; in the data set on VZV it was 1+ and 2+ and 3+. The “effect on cytopathogenesis (in words)” value (in the data set with adenovirus type 3 (ADV3); with adenovirus type 7 (ADV7); in data set [3]; in [4]; in data set [5]; in [6]) was “inhibiting effect” in each case. Moreover, the “toxic reaction to cells (in words)” value with Hep-2 cells and with Z-HL16C cells was “no any toxic reaction” in each case.
Regarding `NC(=O)c1ncn([C@@H]2O[C@H](CO)[C@@H](O)[C@H]2O)n1` [Ribavirin, reference compound], the “cell pathologic change degree” value in the data set on adenovirus type 3 (ADV3) is 1+ and 2+ and 3+; with adenovirus type 7 (ADV7) it was 2+ and 3+; in data set [3], 2+ and 3+; in data set [4] it was 1+ and 3+; in data set [5] it was 1+ and 3+; in data set [6], 2+ and 3+. Further, the “cell pathologic change degree” value with HSV-1 was 1+ and 2+ and 3+. For the same molecule, the “Pathologic change pore/cell pore” value with coronavirus BJ01 strain is 2/4 and 3/4 and 4/4 and 0/4 and 1/4.
For the molecule `COc1c(O)c(CN(C)C)c2occ(-c3ccc(O)cc3)c(=O)c2c1O` [Compound (X)], in [2] (setting [8]), the solubility was above 2000 µg/mL. Moreover, the “cell pathologic change degree” value was 1+ and 2+ and 3+ in the data set with adenovirus type 3 (ADV3); 2+ and 3+ in the data set with adenovirus type 7 (ADV7); 1+ and 3+ in data set [3]; 2+ in data set [4]; 1+ and 2+ and 3+ in data set [5]; 2+ and 3+ in data set [6]. Besides, the “cell pathologic change degree” value was 1+ and 2+ and 3+ with HSV-1; 1+ and 2+ in the data set on VZV. This molecule also yielded an IC50 in the data set with coronavirus BJ01 strain of 119 µg/mL (≈ 332 µM). In the data set on Vero-E6 cell, the “TD50 (median toxic concentration)” value was 3.95 mg/mL. Further, the “Solute: water” value in data set [1] was 9 mg/mL.
With `COc1c(O)c(CN2CCCCC2)c2occ(-c3ccc(O)cc3)c(=O)c2c1O` [Compound (IX)], the solubility in [2] (setting [8]) is below 1000 µg/mL. The “cell pathologic change degree” value is 1+ and 3+ in the data set on adenovirus type 3 (ADV3); 2+ and 3+ in the data set with adenovirus type 7 (ADV7); 1+ and 2+ and 3+ in data set [3]; 2+ in [4]; 1+ and 2+ and 3+ in [5]; 2+ in data set [6]. Further, the “cell pathologic change degree” value in the data set with HSV-1 was 2+; in the data set with VZV, 1+ and 2+ and 3+. In the data set with coronavirus BJ01 strain, this molecule gave an IC50 of 125 µg/mL (≈ 315 µM). Moreover, the “TD50 (median toxic concentration)” value in the data set with Vero-E6 cell was found to be 2.89 mg/mL. Further, in data set [1], the “Solute: water” value amounted to 8 mg/mL.
Turning to `COc1c(O)cc2occ(-c3ccc(O)c(N)c3)c(=O)c2c1O` [Compound (VI)], the solubility in [2] (setting [8]) was above 1000 µg/mL. Moreover, the “cell pathologic change degree” value in the data set on adenovirus type 3 (ADV3) is 1+ and 2+ and 3+; in the data set on adenovirus type 7 (ADV7) it was 2+ and 3+; in data set [3] it was 2+; in [4] it was 2+; in data set [5], 1+ and 2+ and 3+; in [6], 2+ and 3+. Also, the “cell pathologic change degree” value in the data set with HSV-1 was 1+ and 2+ and 3+; in the data set with VZV it was 2+ and 3+. Besides, half-maximal inhibition in the data set on coronavirus BJ01 strain (IC50) required 120 µg/mL (≈ 381 µM). In addition, the “TD50 (median toxic concentration)” value in the data set with Vero-E6 cell was 3.85 mg/mL. Moreover, the “Solute: water” value in [1] was found to be 8 mg/mL.
In the case of `COc1c(O)cc2occ(-c3ccc(O)c(S(=O)(=O)[O-])c3)c(=O)c2c1O.[Na+]` [Compound (IV), tectorigenin sodium sulfonate], the solubility in data set [2] (60 °C, after heating to 60˜100° C., read-out: water-solubility) was 50000 to 60000 µg/mL; in data set [2] (room temperature, read-out: water-solubility), 20000 µg/mL. Besides, the “clarity of the injection” value in data set [7] (2-15% glucose added, room temperature and low temperature (0° C.-5° C.)) is reported as “kept clarified”; in data set [7] (4% glucose added, room and low (0° C.˜5° C.) temperature) it was “kept clear”. Also, in the data set on coronavirus BJ01 strain, it took 97.6 µg/mL to reach half-maximal inhibition (IC50). Also, the “TD50 (median toxic concentration)” value in the data set on Vero-E6 cell was determined as 4.34 mg/mL. Moreover, the “Solute: water” value in data set [1] worked out at 67 mg/mL.
`COc1c(O)cc2occ(-c3ccc(OCC(=O)[O-])cc3)c(=O)c2c1O.[Na+]` [Compound (VII)]: the solubility in data set [2] (setting [8]) is above 2000 µg/mL. For the same molecule, the “cell pathologic change degree” value in the data set with adenovirus type 3 (ADV3) is 1+ and 2+; with adenovirus type 7 (ADV7) it was 2+ and 3+; in [3], 1+ and 2+ and 3+; in [4], 2+; in [5] it was 1+ and 2+ and 3+; in data set [6] it was 2+ and 3+. Besides, the “cell pathologic change degree” value in the data set with HSV-1 is 1+; in the data set with VZV it was 1+ and 2+. The same molecule displayed an IC50 in the data set with coronavirus BJ01 strain of 102 µg/mL. Besides, the “TD50 (median toxic concentration)” value in the data set on Vero-E6 cell came out at 4.20 mg/mL. Besides, the “Solute: water” value in data set [1] was determined as 15 mg/mL.
